Where two headings read alike, the source gives them in different places.
Tests used:
SARS-CoV-2 3CL-protease = SARS-CoV-2 3CL-protease (Severe acute respiratory syndrome coronavirus 2, UniProt P0DTD1); assay: SARS-CoV-2 3C-like (3CL) protease fluorescence assay (FRET); format: biochemical; conditions: 30 min preincubation, run in duplicate
[1] = test system: 229E human corona virus (hCoV); assay: 229E live virus assay (CPE, ATPlite readout in MRC-5 cells); format: cell-based, hCoV-229E; conditions: Human coronavirus 229E, MRC5, 144 h, MOI 0.05, 6 days at 34° C., run in duplicate
[2] = recombinant SARS-CoV-2 3CL-protease 10 nM, read-out: FRET IC50

SMILES | IC50 (SARS-CoV-2 3CL-protease; [2]) [nM] | EC50 [1] [nM] | IC50 (SARS-CoV-2 3CL-protease; FRET IC50, recombinant SARS-CoV-2 3CL-protease 10 nM) [nM]
CC(C)(C)C[C@H](NC(=O)C(=O)NCc1ccccc1)C(=O)N1C[C@]2(C[C@H]1C#N)C(=O)Nc1ccccc12 [Example 159] | < 100 | < 100 | –
[2H]C([2H])([2H])N(C(=O)C(=O)Nc1c(C(F)(F)F)cccc1C(F)(F)F)[C@@H](CC1CC1)C(=O)N1C[C@]2(C[C@H]1C#N)C(=O)Nc1ccccc12 [Example 193] | < 100 | < 100 | –
CC(C)(C)C[C@H](NC(=O)C(=O)Nc1c(F)cc(F)cc1F)C(=O)N1C[C@]2(C[C@H]1C#N)C(=O)Nc1ccccc12 [Example 92] | < 100 | < 100 | –
CC(C)C[C@H](NC(=O)C(=O)Nc1ccc(F)cc1)C(=O)N1C[C@]2(C[C@H]1C#N)C(=O)Nc1ccccc12 [Example 115] | < 100 | < 100 | –
CC(C)(C)C[C@H](NC(=O)C(=O)C1CCCCC1)C(=O)N1C[C@]2(C[C@H]1C#N)C(=O)Nc1ccccc12 [Example 183] | < 100 | 100 to 1000 | –
CC(C)(C)C[C@H](NC(=O)C(=O)Nc1ccc(F)cc1)C(=O)N1C[C@]2(C[C@H]1C#N)C(=O)Nc1ccccc12 [Example 93] | < 100 | < 100 | –
CC(C)(C)C[C@H](NC(=O)C(=O)Nc1c(Cl)cccc1Cl)C(=O)N1C[C@]2(C[C@H]1C#N)C(=O)Nc1ccccc12 [Example 117] | < 100 | < 100 | –
[2H]C([2H])([2H])N(C(=O)C(=O)NC1(c2ccc(F)cc2F)CC1)[C@@H](CC1CC1)C(=O)N1C[C@]2(C[C@H]1C#N)C(=O)Nc1ccccc12 [Example 191] | < 100 | < 100 | –
CC(C)(C)C[C@H](NC(=O)C(=O)NC1CCC1)C(=O)N1C[C@]2(C[C@H]1C#N)C(=O)Nc1ccccc12 [Example 87] | – | < 100 | –
CC(C)(C)C[C@H](NC(=O)C(=O)Nc1cccc(F)c1)C(=O)N1C[C@]2(C[C@H]1C#N)C(=O)Nc1ccccc12 [Example 89] | < 100 | < 100 | –
CC(C)(C)C[C@H](NC(=O)C(=O)NC(C)(C)C)C(=O)N1C[C@]2(C[C@H]1C#N)C(=O)Nc1ccccc12 [Example 95] | – | < 100 | –
C[C@H](NC(=O)C(=O)N[C@@H](CC(C)(C)C)C(=O)N1C[C@]2(C[C@H]1C#N)C(=O)Nc1ccccc12)c1ccccc1 [Example 161] | < 100 | < 100 | –
[2H]C([2H])([2H])N(C(=O)C(=O)NCC1(C(F)(F)F)CC1)[C@@H](CC1CC1)C(=O)N1C[C@]2(C[C@H]1C#N)C(=O)Nc1ccccc12 [Example 192] | < 100 | < 100 | –
CC(C)(C)C[C@H](NC(=O)C(=O)Nc1ccccc1)C(=O)N1C[C@]2(C[C@H]1C#N)C(=O)Nc1ccccc12 [Example 104] | – | < 100 | –
CC(C)C[C@H]1C(=O)N2C[C@]3(C[C@H]2C#N)C(=O)Nc2ccc(cc23)CCCCN(Cc2ccccc2)C(=O)C(=O)N1C [Example 212] | 100 to 1000 | 100 to 1000 | –
N#C[C@@H]1C[C@@]2(CN1C(=O)[C@H](CC1CC1)NC(=O)C(=O)Nc1ccc(C(F)(F)F)cc1C(F)(F)F)C(=O)Nc1ccccc12 [Example 199] | < 100 | – | –
CC(C)(C)C[C@H](NC(=O)C(=O)Nc1ccccc1C(F)(F)F)C(=O)N1C[C@]2(C[C@H]1C#N)C(=O)Nc1ccccc12 [Example 195] | < 100 | – | –
N#C[C@@H]1C[C@@]2(CN1C(=O)[C@H](CC1CC1)NC(=O)C(=O)Nc1c(C(F)(F)F)cncc1C(F)(F)F)C(=O)Nc1ccccc12 [Example 206] | < 100 | – | –
CC(C)(C)C[C@H](NC(=O)C(=O)Nc1ccc2ncccc2c1)C(=O)N1C[C@]2(C[C@H]1C#N)C(=O)Nc1ccccc12 [Example 114] | < 100 | – | –
Cc1cccc(Cl)c1NC(=O)C(=O)N[C@@H](CC(C)(C)C)C(=O)N1C[C@]2(C[C@H]1C#N)C(=O)Nc1ccccc12 [Example 147] | < 100 | – | –
CC(C)(C)C[C@H](NC(=O)C(=O)NC12CCC(CC1)CC2)C(=O)N1C[C@]2(C[C@H]1C#N)C(=O)Nc1ccccc12 [Example 130] | < 100 | – | –
N#C[C@@H]1C[C@@]2(CN1C(=O)[C@H](CC1CC1)NC(=O)C(=O)Nc1c(Cl)cc(Cl)cc1C(F)(F)F)C(=O)Nc1ccccc12 [Example 205] | < 100 | – | –
CC(C)(C)C[C@H](NC(=O)C(=O)OC(C)(C)C)C(=O)N1C[C@]2(C[C@H]1C#N)C(=O)Nc1ccccc12 [Example 188] | 100 to 1000 | – | –
CC(C)(C)C[C@H](NC(=O)C(=O)NC1(c2ccccc2C(F)(F)F)CC1)C(=O)N1C[C@]2(C[C@H]1C#N)C(=O)Nc1ccccc12 [Example 107] | < 100 | – | –
CC(C)(C)C[C@H](NC(=O)C(=O)Nc1c(C(F)(F)F)cncc1C(F)(F)F)C(=O)N1C[C@]2(C[C@H]1C#N)C(=O)Nc1ccccc12 [Example 207] | < 100 | – | –
Cc1cccc(C)c1NC(=O)C(=O)N[C@@H](Cc1ccc(F)cc1)C(=O)N1C[C@]2(C[C@H]1C#N)C(=O)Nc1ccccc12 [Example 73] | < 100 | – | –
CC(C)(C)C[C@H](NC(=O)C(=O)NC1(C(F)(F)F)CC1)C(=O)N1C[C@]2(C[C@H]1C#N)C(=O)Nc1ccccc12 [Example 134] | < 100 | – | –
N#C[C@@H]1C[C@@]2(CN1C(=O)[C@H](CC1CC1)NC(=O)C(=O)Nc1ccc(C(F)(F)F)cn1)C(=O)Nc1ccccc12 [Example 169] | < 100 | – | –

SMILES | IC50 (SARS-CoV-2 3CL-protease; [2]) [nM] | EC50 [1] [nM] | IC50 (SARS-CoV-2 3CL-protease; FRET IC50, recombinant SARS-CoV-2 3CL-protease 10 nM) [nM]
CC(C)(C)C[C@H](NC(=O)C(=O)Nc1ccc(Cl)cc1C(F)(F)F)C(=O)N1C[C@]2(C[C@H]1C#N)C(=O)Nc1ccccc12 [Example 149] | < 100 | – | –
N#C[C@@H]1C[C@@]2(CN1C(=O)[C@H](CC1CC1)NC(=O)C(=O)Nc1ccnc(C(F)(F)F)c1)C(=O)Nc1ccccc12 [Example 176] | < 100 | – | –
CC(C)(C)C[C@H](NC(=O)C(=O)Nc1c(Cl)cccc1C#N)C(=O)N1C[C@]2(C[C@H]1C#N)C(=O)Nc1ccccc12 [Example 148] | < 100 | – | –
Cc1cccc(C(F)(F)F)c1NC(=O)C(=O)N[C@@H](CC(C)(C)C)C(=O)N1C[C@]2(C[C@H]1C#N)C(=O)Nc1ccccc12 [Example 132] | < 100 | – | –
Cc1cccc(NC(=O)C(=O)N[C@@H](CC(C)(C)C)C(=O)N2C[C@]3(C[C@H]2C#N)C(=O)Nc2ccccc23)n1 [Example 163] | < 100 | – | –
Cc1cccc(C)c1NC(=O)C(=O)N[C@@H](CC(C)C)C(=O)N1C[C@]2(C[C@H]1C#N)C(=O)Nc1ccccc12 [Example 201] | < 100 | – | –
CC(C)(C)C[C@H](NC(=O)C(=O)N1CCC(F)(F)CC1)C(=O)N1C[C@]2(C[C@H]1C#N)C(=O)Nc1ccccc12 [Example 111] | > 1000 | – | –
CC(C)(C)C[C@H](NC(=O)C(=O)N[C@]12C[C@](C)(C1)C2)C(=O)N1C[C@]2(C[C@H]1C#N)C(=O)Nc1ccccc12 [Example 141] | < 100 | – | –
N#C[C@@H]1C[C@@]2(CN1C(=O)[C@H](CC1CC1)NC(=O)C(=O)Nc1cccnc1C(F)(F)F)C(=O)Nc1ccccc12 [Example 175] | < 100 | – | –
CC(C)(C)C[C@@H](C(=O)N1C[C@]2(C[C@H]1C#N)C(=O)Nc1ccccc12)N(CC(F)F)C(=O)C(=O)NC1CC1 [Example 63] | 100 to 1000 | – | –
CC(C)(C)C[C@H](NC(=O)C(=O)NC(C)(C)c1ccccn1)C(=O)N1C[C@]2(C[C@H]1C#N)C(=O)Nc1ccccc12 [Example 106] | < 100 | – | –
N#C[C@@H]1C[C@@]2(CN1C(=O)[C@H](CC1CC1)NC(=O)C(=O)Nc1c(C(F)(F)F)cccc1C(F)(F)F)C(=O)Nc1ccccc12 [Example 208] | < 100 | – | –
N#C[C@@H]1C[C@@]2(CN1C(=O)[C@H](CC1CC1)NC(=O)C(=O)Nc1cccc(C(F)(F)F)n1)C(=O)Nc1ccccc12 [Example 170] | < 100 | – | –
[2H]C([2H])([2H])N(C(=O)C(=O)Nc1ccc(F)cc1C(F)(F)F)[C@@H](CC1CC1)C(=O)N1C[C@]2(C[C@H]1C#N)C(=O)Nc1ccccc12 [Example 55] | < 100 | – | –
N#C[C@@H]1C[C@@]2(CN1C(=O)[C@H](CC1CC1)NC(=O)C(=O)Nc1c(Cl)cccc1C(F)(F)F)C(=O)Nc1ccccc12 [Example 194] | < 100 | – | –
CN(C(=O)C(=O)Nc1ccc(C(F)(F)F)cc1C(F)(F)F)[C@@H](CC1CC1)C(=O)N1C[C@]2(C[C@H]1C#N)C(=O)Nc1ccccc12 [Example 198] | – | – | < 100
CC(C)C[C@@H](C(=O)N1C[C@]2(C[C@H]1C#N)C(=O)Nc1ccccc12)N(C)C(=O)C(=O)Nc1ccc(F)cc1F [Example 1] | – | < 100 | –
[2H]C([2H])([2H])N(C(=O)C(=O)Nc1ccc(C(F)(F)F)cc1)[C@@H](CC1CC1)C(=O)N1C[C@]2(C[C@H]1C#N)C(=O)Nc1ccccc12 [Example 54] | < 100 | – | –
CC(C)(C)C[C@H](NC(=O)C(=O)NC1(c2ccccc2F)CC1)C(=O)N1C[C@]2(C[C@H]1C#N)C(=O)Nc1ccccc12 [Example 139] | < 100 | – | –
CC(C)(C)C[C@H](NC(=O)C(=O)Nc1c(C(F)(F)F)ccc(Cl)c1Cl)C(=O)N1C[C@]2(C[C@H]1C#N)C(=O)Nc1ccccc12 [Example 210] | < 100 | – | –
CC(C)(C)C[C@H](NC(=O)C(=O)NC1(C)CC1)C(=O)N1C[C@]2(C[C@H]1C#N)C(=O)Nc1ccccc12 [Example 140] | < 100 | – | –
CC(C)(C)C[C@H](NC(=O)C(=O)OCc1ccccc1)C(=O)N1C[C@]2(C[C@H]1C#N)C(=O)Nc1ccccc12 [Example 189] | > 1000 | – | –
CC(C)(C)C[C@H](NC(=O)C(=O)N1CCCCC1)C(=O)N1C[C@]2(C[C@H]1C#N)C(=O)Nc1ccccc12 [Example 110] | > 1000 | – | –
N#C[C@@H]1C[C@@]2(CN1C(=O)[C@H](CC1CC1)NC(=O)C(=O)Nc1ccc(C(F)(F)F)nc1)C(=O)Nc1ccccc12 [Example 174] | < 100 | – | –
Cc1cc(F)cc(C)c1NC(=O)C(=O)N[C@@H](CC(C)(C)C)C(=O)N1C[C@]2(C[C@H]1C#N)C(=O)Nc1ccccc12 [Example 143] | < 100 | – | –
CCCC[C@H](NC(=O)C(=O)Nc1c(F)cccc1C(F)(F)F)C(=O)N1C[C@]2(C[C@H]1C#N)C(=O)Nc1ccccc12 [Example 79] | < 100 | – | –
Cc1cccc(C)c1NC(=O)C(=O)N[C@@H](CC1CC1)C(=O)N1C[C@]2(C[C@H]1C#N)C(=O)Nc1ccccc12 [Example 78] | < 100 | – | –

Reference: patent US12643905B2, “Spiropyrrolidine derived antiviral agents” (priority 2021, dated 2026)
